From ChEMBL document CHEMBL5723587, “Data for DCP probe BI-113823” (2024)
Activity calls are given as the source filed them. No cut-off for these calls is given here.

What was measured:
[1] = target: Thyroid hormone receptor alpha (Rattus norvegicus) (UniProt P63059); assay: Activity against THYROID HORM in the Eurofins SafetyScreen44 (BI) by Radioactive Assay; settings: Homo sapiens; Compound concentration 10.0 uM
[2] = target: Glutamate receptor ionotropic, kainate 1 (Rattus norvegicus) (UniProt P22756); assay: Activity against KAINATE/R in the Eurofins SafetyScreen44 (BI) by Radioactive Assay; settings: Compound concentration 10.0 uM
B1 bradykinin receptor [3] = target: B1 bradykinin receptor (Oryctolagus cuniculus, UniProt P48748); assay: Radioligand binding assay (displacement of kallidin, rabbit BDKRB1 ) at 10 µM ( Non-specific binding is estimated in the presence of 10 µM Des-Arg9- (Leu8)-Bradykinin. Membranes are filtered and washed, the filters are then counted to determine [3H]Kallidin[des-Arg10, Leu9] specifically bound.); parameters: compound concentration 10 uM
[4] = target: Sodium-dependent serotonin transporter (Homo sapiens) (UniProt P31645); assay: Activity against 5HTTRANS/HU in the Eurofins SafetyScreen44 (BI) by Radioactive Assay; settings: Compound concentration 10.0 uM
[5] = target: Delta-type opioid receptor (Homo sapiens) (UniProt P41143); assay: Activity against DELTA/HU in the Eurofins SafetyScreen44 (BI) by Radioactive Assay; settings: Compound concentration 10.0 uM
[6] = target: Glutamate receptor ionotropic, NMDA 2A (Rattus norvegicus) (UniProt Q00959); assay: Activity against NMDAPHSI/R in the Eurofins SafetyScreen44 (BI) by Radioactive Assay; settings: Compound concentration 10.0 uM
Rattus norvegicus = organism: Rattus norvegicus; assay: Activity against CA+/DHPSI/RA in the Eurofins SafetyScreen44 (BI) by Radioactive Assay; settings: Compound concentration 10.0 uM
[7] = target: Adenosine receptor A3 (Homo sapiens) (UniProt P0DMS8); assay: Activity against A3/H in the Eurofins SafetyScreen44 (BI); settings: Compound concentration 10.0 uM
[8] = target: Interleukin-1 receptor type 1 (Mus musculus) (UniProt P13504); assay: Activity against IL-1ALPHA/M in the Eurofins SafetyScreen44 (BI) by Others; settings: Compound concentration 10.0 uM
[9] = target: Muscarinic acetylcholine receptor M2 (Homo sapiens) (UniProt P08172); assay: Activity against M2/HU in the Eurofins SafetyScreen44 (BI) by Radioactive Assay; settings: Compound concentration 10.0 uM
[10] = target: Adenosine receptor A1 (Homo sapiens) (UniProt P30542); assay: Activity against A1/HU in the Eurofins SafetyScreen44 (BI) by Radioactive Assay; settings: Compound concentration 10.0 uM
[11] = target: D(4) dopamine receptor (Homo sapiens) (UniProt P21917); assay: Activity against D4.2/H in the Eurofins SafetyScreen44 (BI) by Radioactive Assay; settings: Compound concentration 10.0 uM
[12] = target: Alpha-1B adrenergic receptor (Rattus norvegicus) (UniProt P15823); assay: Activity against ALPHA1B/R in the Eurofins SafetyScreen44 (BI) by Radioactive Assay; settings: Compound concentration 10.0 uM
[13] = target: Sodium-dependent noradrenaline transporter (Homo sapiens) (UniProt P23975); assay: Activity against NETRANS/H in the Eurofins SafetyScreen44 (BI) by Radioactive Assay; settings: Compound concentration 10.0 uM
[14] = target: Mu-type opioid receptor (Homo sapiens) (UniProt P35372); assay: Activity against MU/HU in the Eurofins SafetyScreen44 (BI) by Radioactive Assay; settings: Compound concentration 10.0 uM
[15] = target: Histamine H1 receptor (Homo sapiens) (UniProt P35367); assay: Activity against H1/H in the Eurofins SafetyScreen44 (BI) by Radioactive Assay; settings: Compound concentration 10.0 uM
[16] = target: Adenosine receptor A2a (Homo sapiens) (UniProt P29274); assay: Activity against A2A/HU in the Eurofins SafetyScreen44 (BI); settings: Compound concentration 10.0 uM
[17] = target: Melatonin receptor type 1A (Homo sapiens) (UniProt P48039); assay: Activity against MT1/H in the Eurofins SafetyScreen44 (BI) by Radioactive Assay; settings: Compound concentration 10.0 uM
B1 bradykinin receptor [18] = target: T1, B1 bradykinin receptor (Homo sapiens, UniProt P46663); assay: Radioligand binding assay (displacement of kallidin, hBDKRB1 ) at 10 µM ( Non-specific binding is estimated in the presence of 10 µM Des-Arg9- (Leu8)-Bradykinin. Membranes are filtered and washed, the filters are then counted to determine [3H]Kallidin[des-Arg10, Leu9] specifically bound.); parameters: compound concentration 10 uM
T1 sequence (P46663 whole entry): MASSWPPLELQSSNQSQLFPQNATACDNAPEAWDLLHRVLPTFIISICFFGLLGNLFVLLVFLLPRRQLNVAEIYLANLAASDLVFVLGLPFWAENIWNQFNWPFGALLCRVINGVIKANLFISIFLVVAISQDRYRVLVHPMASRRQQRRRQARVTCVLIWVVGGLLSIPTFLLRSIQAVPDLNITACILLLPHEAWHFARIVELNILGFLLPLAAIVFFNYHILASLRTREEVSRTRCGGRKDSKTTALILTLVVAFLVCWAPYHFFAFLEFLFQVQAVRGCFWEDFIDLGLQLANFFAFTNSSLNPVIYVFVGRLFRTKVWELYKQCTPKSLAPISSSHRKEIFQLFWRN

[19] = target: P2Y purinoceptor 1 (Rattus norvegicus) (UniProt P49651); assay: Activity against P2Y/RAT in the Eurofins SafetyScreen44 (BI) by Radioactive Assay; settings: Compound concentration 10.0 uM
[20] = target: Pyroglutamylated RF-amide peptide receptor (Homo sapiens) (UniProt Q96P65); assay: Activity against GPR103 in the Eurofins SafetyScreen44 (BI) by Radioactive Assay; settings: Compound concentration 10.0 uM
B1 bradykinin receptor [21] = target: T1, B1 bradykinin receptor; assay: Measurement of intracellular calcium in HEK-cells expressing hBDKRB1 at up to 1 µM ( The compound antagonizes the effects of the specific B1 agonist [Lys-des-Arg9 ]-Bradykinin (10 nM) in a concentration-dependent manner.); type: functional, cell-based; parameters: compound concentration < 1 uM
[22] = target: Estrogen receptor (Homo sapiens) (UniProt P03372); assay: Activity against ERALPHA/H in the Eurofins SafetyScreen44 (BI) by Radioactive Assay; settings: Compound concentration 10.0 uM
[23] = target: Beta-1 adrenergic receptor (Homo sapiens) (UniProt P08588); assay: Activity against BETA1/HU in the Eurofins SafetyScreen44 (BI) by Radioactive Assay; settings: Compound concentration 10.0 uM
[24] = target: L-type calcium channel, Cav1.2 alpha-1C (CA+/DILSI/RA) (Rattus norvegicus, UniProt P22002); assay: Activity against CA+/DILSI/RA in the Eurofins SafetyScreen44 (BI) by Radioactive Assay; settings: compound concentration 10 uM, read-out: % Ctrl
[25] = target: 5-hydroxytryptamine receptor 3A (Homo sapiens) (UniProt P46098); assay: Activity against 5HT3/HU in the Eurofins SafetyScreen44 (BI) by Others; settings: Compound concentration 10.0 uM
[26] = target: Muscarinic acetylcholine receptor M3 (Homo sapiens) (UniProt P20309); assay: Activity against M3/HU in the Eurofins SafetyScreen44 (BI) by Radioactive Assay; settings: Compound concentration 10.0 uM
B1 bradykinin receptor [27] = target: B1 bradykinin receptor (Rattus norvegicus, UniProt P97583); assay: Radioligand binding assay (displacement of kallidin, rat BDKRB1 ) at 10 µM ( Non-specific binding is estimated in the presence of 10 µM Des-Arg9- (Leu8)-Bradykinin. Membranes are filtered and washed, the filters are then counted to determine [3H]Kallidin[des-Arg10, Leu9] specifically bound.); parameters: compound concentration 10 uM
[28] = target: Alpha-1A adrenergic receptor (Rattus norvegicus) (UniProt P43140); assay: Activity against ALPHA1A/R in the Eurofins SafetyScreen44 (BI) by Others; settings: Compound concentration 10.0 uM

Chain of Muscarinic acetylcholine receptor M3 (Homo sapiens) (P20309 whole entry, looked up): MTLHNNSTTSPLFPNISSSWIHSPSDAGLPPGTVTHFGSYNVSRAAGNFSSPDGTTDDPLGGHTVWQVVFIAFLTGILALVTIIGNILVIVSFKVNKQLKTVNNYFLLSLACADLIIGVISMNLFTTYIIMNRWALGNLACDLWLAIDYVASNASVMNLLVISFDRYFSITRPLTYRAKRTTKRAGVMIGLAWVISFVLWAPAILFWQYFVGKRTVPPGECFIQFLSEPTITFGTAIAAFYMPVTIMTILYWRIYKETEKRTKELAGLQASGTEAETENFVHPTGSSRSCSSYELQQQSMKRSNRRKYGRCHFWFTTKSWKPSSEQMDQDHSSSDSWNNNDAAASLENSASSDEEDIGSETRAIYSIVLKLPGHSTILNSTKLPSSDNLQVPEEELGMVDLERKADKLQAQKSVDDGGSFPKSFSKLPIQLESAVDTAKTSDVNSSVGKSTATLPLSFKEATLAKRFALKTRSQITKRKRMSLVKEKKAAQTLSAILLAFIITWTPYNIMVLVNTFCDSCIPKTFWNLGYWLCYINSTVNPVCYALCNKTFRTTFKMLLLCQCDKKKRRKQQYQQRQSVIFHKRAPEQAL
Chain of Glutamate receptor ionotropic, NMDA 2A (Rattus norvegicus) (Q00959 23-1464 limits assumed): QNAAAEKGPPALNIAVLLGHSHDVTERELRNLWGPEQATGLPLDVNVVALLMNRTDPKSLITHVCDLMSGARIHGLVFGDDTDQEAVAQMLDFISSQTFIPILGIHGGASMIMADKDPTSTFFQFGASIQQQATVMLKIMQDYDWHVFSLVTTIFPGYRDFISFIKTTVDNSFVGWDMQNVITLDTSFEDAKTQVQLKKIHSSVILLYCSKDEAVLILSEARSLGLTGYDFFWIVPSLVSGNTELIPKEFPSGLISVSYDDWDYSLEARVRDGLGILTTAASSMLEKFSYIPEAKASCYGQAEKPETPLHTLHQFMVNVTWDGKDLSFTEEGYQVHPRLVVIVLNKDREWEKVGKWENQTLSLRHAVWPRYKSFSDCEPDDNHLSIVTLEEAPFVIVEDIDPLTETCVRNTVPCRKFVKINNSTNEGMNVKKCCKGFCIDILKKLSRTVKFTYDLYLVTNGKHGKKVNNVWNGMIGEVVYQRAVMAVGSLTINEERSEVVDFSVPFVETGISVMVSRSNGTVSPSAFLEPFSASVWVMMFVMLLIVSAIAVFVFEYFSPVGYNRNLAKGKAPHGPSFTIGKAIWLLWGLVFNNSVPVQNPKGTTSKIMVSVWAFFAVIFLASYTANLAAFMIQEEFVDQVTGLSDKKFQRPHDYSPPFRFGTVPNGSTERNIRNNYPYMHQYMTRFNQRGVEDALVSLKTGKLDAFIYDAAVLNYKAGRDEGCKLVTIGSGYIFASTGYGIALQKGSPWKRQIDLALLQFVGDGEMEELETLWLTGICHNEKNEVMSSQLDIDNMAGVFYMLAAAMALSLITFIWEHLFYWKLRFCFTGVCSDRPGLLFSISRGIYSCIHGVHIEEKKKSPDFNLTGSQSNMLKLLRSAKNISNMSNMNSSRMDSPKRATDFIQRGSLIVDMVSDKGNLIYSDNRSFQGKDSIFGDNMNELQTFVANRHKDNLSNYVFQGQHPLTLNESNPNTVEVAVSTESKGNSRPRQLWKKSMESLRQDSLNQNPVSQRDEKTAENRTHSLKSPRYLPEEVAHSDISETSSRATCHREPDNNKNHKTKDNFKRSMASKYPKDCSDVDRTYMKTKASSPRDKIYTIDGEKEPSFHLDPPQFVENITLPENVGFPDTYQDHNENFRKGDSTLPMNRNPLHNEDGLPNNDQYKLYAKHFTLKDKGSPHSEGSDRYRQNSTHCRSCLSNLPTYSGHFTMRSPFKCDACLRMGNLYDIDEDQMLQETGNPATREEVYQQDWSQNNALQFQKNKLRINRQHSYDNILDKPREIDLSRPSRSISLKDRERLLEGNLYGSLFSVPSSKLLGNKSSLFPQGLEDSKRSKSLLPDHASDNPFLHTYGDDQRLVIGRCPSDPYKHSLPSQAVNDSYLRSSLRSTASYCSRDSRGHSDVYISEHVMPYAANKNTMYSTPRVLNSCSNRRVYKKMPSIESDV
Chain of Adenosine receptor A1 (Homo sapiens) (P30542 whole entry): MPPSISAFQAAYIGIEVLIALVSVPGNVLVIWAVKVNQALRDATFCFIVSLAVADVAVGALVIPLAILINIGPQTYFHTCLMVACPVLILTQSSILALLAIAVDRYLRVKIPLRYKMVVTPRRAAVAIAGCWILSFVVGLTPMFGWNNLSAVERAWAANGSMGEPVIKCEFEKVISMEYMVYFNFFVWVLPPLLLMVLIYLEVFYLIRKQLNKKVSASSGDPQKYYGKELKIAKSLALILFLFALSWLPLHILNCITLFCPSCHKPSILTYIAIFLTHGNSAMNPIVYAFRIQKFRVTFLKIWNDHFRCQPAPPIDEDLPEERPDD
Chain of Mu-type opioid receptor (Homo sapiens) (P35372 whole entry): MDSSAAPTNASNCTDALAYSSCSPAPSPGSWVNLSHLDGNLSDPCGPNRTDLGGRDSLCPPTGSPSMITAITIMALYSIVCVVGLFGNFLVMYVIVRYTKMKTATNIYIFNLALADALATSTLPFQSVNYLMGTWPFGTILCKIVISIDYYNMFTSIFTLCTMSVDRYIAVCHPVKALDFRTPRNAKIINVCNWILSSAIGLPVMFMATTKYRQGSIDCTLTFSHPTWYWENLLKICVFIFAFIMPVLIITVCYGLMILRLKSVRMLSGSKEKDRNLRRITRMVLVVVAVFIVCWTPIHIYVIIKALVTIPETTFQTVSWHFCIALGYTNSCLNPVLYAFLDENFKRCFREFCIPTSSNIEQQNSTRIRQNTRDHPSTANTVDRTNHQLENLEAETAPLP
Chain of Interleukin-1 receptor type 1 (Mus musculus) (P13504 whole entry): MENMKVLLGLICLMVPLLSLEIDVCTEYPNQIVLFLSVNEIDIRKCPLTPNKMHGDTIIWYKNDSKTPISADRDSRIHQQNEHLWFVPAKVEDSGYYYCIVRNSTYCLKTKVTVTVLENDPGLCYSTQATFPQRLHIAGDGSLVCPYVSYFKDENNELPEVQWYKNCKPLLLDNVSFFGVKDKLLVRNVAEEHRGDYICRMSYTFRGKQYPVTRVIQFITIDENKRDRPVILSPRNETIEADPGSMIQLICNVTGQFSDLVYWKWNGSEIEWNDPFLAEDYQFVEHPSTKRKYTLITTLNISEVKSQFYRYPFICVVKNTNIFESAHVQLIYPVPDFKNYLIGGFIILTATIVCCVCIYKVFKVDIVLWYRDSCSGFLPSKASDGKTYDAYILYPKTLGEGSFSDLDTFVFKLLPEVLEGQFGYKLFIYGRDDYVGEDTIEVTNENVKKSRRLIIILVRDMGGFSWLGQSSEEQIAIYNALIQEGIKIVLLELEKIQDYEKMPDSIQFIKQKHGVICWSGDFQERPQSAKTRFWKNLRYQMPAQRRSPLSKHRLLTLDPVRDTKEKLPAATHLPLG
Chain of Alpha-1B adrenergic receptor (Rattus norvegicus) (P15823 whole entry, looked up): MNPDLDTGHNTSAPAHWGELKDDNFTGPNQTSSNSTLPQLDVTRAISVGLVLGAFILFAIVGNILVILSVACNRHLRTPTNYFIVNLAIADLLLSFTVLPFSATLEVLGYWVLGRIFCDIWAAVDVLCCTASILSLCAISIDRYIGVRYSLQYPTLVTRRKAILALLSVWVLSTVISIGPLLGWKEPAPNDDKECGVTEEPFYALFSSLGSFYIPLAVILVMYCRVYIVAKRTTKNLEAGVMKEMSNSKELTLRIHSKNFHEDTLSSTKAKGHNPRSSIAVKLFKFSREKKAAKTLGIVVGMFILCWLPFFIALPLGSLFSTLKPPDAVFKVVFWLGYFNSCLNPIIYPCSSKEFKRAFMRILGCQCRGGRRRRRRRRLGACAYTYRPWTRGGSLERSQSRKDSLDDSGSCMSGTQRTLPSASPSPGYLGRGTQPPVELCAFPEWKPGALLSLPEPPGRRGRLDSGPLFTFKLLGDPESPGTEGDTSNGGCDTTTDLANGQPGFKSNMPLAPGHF
Chain of Thyroid hormone receptor alpha (Rattus norvegicus) (P63059 whole entry): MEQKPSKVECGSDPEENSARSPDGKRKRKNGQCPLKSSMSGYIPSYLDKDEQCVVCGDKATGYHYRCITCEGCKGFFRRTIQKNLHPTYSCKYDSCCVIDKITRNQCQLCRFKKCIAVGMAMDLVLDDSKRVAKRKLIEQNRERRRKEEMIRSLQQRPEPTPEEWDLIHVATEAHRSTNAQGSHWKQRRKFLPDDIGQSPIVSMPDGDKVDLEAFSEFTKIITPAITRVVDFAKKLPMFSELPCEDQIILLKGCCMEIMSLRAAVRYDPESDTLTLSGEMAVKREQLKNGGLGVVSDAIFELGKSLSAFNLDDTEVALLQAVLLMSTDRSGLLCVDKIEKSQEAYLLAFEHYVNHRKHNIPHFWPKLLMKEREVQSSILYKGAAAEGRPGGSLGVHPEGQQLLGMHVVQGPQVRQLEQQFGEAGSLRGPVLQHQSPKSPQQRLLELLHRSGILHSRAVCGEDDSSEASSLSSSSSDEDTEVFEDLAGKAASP
Chain of Sodium-dependent serotonin transporter (Homo sapiens) (P31645 whole entry, looked up): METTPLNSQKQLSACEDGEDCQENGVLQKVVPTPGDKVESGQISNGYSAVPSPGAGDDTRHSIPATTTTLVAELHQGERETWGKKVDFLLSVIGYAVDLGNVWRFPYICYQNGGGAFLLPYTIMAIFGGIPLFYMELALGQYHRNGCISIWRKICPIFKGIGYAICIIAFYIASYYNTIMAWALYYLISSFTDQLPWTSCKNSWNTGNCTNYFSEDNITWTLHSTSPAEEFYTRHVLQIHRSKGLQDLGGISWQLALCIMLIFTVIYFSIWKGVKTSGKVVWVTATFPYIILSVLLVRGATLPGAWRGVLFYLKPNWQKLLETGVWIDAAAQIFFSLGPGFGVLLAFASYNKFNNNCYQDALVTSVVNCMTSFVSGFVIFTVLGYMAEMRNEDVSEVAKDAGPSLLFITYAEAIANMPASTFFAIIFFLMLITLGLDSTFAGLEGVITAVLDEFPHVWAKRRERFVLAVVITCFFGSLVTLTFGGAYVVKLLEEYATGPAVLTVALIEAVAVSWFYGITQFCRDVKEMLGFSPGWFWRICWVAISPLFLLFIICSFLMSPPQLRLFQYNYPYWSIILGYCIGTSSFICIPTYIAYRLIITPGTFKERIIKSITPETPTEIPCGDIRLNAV

`COc1cc(C)c(S(=O)(=O)N(C)CCOCC(=O)N(C)[C@H]2CCC[C@@H](N3CCN(C)CC3)C2)c(C)c1` was tested, and the residual activity [1] was 84%, the residual activity [2] was 93% and the Ki (B1 bradykinin receptor [3]) was 15.3 nM (active). It also gave a residual activity [4] of 108%, a residual activity [5] of 86% and a residual activity [6] of 111%. For the same compound, the residual activity (Rattus norvegicus) was 94%, the residual activity [7] was 101% and the residual activity [8] was 79%. The residual activity [9] was 61%, the residual activity [10] was 99% and the residual activity [11] was 101%. It also gave a residual activity [12] of 96%, a residual activity [13] of 114% and a residual activity [14] of 91%. For the same compound, the residual activity [15] was 85%, the residual activity [16] was 97% and the residual activity [17] was 97%. For the same compound, the Ki (B1 bradykinin receptor [18]) was 5.3 nM (active), the residual activity [19] was 108% and the residual activity [20] was 105%. The IC50 (B1 bradykinin receptor [21]) was 7 nM (active), the residual activity [22] was 104% and the residual activity [23] was 105%. For the same compound, the activity at 10 µM [24] was 86% (not active), the residual activity [25] was 91% and the residual activity [26] was 84%. The Ki (B1 bradykinin receptor [27]) was 13.3 nM (active) and the residual activity [28] was 118%.
